# In PubChem BioAssay (NCI):
#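 A five-concentration, 48-hour dose response in 96-well plates underlies each endpoint, interpolated linearly between surrounding concentrations. GI50 = concentration required for 50% inhibition of growth. TGI marks complete inhibition of growth.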
# How the values were obtained:
# Test in all cases: DTP human tumour cell line panel, 48 h
# OVCAR-4 ovarian = system: OVCAR-4 ovarian
# MDA-MB-231 breast = system: MDA-MB-231 breast
# HOP-62 NSCLC = system: HOP-62 NSCLC
# MOLT-4 leukemia = system: MOLT-4 leukemia
# HS 578T breast = system: HS 578T breast
# SK-OV-3 ovarian = system: SK-OV-3 ovarian
# HCT-116 colon = system: HCT-116 colon
# SK-MEL-28 melanoma = system: SK-MEL-28 melanoma
# A498 renal = system: A498 renal
# HT29 colon = system: HT29 colon
# RXF 393 renal = system: RXF 393 renal
# HL-60(TB) leukemia = system: HL-60(TB) leukemia
# SK-MEL-2 melanoma = system: SK-MEL-2 melanoma
# LOX IMVI melanoma = system: LOX IMVI melanoma
# M14 melanoma = system: M14 melanoma
# DU-145 prostate = system: DU-145 prostate
# HCC-2998 colon = system: HCC-2998 colon
# RPMI-8226 leukemia = system: RPMI-8226 leukemia
# ACHN renal = system: ACHN renal
# CAKI-1 renal = system: CAKI-1 renal
# UO-31 renal = system: UO-31 renal
# UACC-62 melanoma = system: UACC-62 melanoma
# NCI-H460 lung = system: NCI-H460 lung
# SF-268 CNS = system: SF-268 CNS
# SK-MEL-5 melanoma = system: SK-MEL-5 melanoma
# SF-295 CNS = system: SF-295 CNS
# SNB-19 CNS = system: SNB-19 CNS
# OVCAR-3 ovarian = system: OVCAR-3 ovarian
# SW-620 colon = system: SW-620 colon
# OVCAR-8 ovarian = system: OVCAR-8 ovarian
# KM12 colon = system: KM12 colon
# TK-10 renal = system: TK-10 renal
# NCI-H23 lung = system: NCI-H23 lung
# MCF7 breast = system: MCF7 breast
# K-562 leukemia = system: K-562 leukemia
# BT-549 breast = system: BT-549 breast
# 786-0 renal = system: 786-0 renal
# UACC-257 melanoma = system: UACC-257 melanoma
# HOP-92 NSCLC = system: HOP-92 NSCLC
# SF-539 CNS = system: SF-539 CNS
# NCI-H522 lung = system: NCI-H522 lung
# CCRF-CEM leukemia = system: CCRF-CEM leukemia
# T-47D breast = system: T-47D breast
# NCI-H226 lung = system: NCI-H226 lung
# SR leukemia = system: SR leukemia
# SNB-75 CNS = system: SNB-75 CNS
# SN12C renal = system: SN12C renal
# PC-3 prostate = system: PC-3 prostate
# A549 NSCLC = system: A549 NSCLC
# NCI/ADR-RES ovarian = system: NCI/ADR-RES ovarian
# MDA-MB-435 = system: MDA-MB-435
# MALME-3M melanoma = system: MALME-3M melanoma
# U251 CNS = system: U251 CNS
# COLO 205 colon = system: COLO 205 colon
# IGROV1 ovarian = system: IGROV1 ovarian
# HCT-15 colon = system: HCT-15 colon
# EKVX NSCLC = system: EKVX NSCLC
# OVCAR-5 ovarian = system: OVCAR-5 ovarian
smiles,measurement,setting,value
COc1ccc(/C=N/NC(=O)c2[nH]c3ccc(Br)cc3c2-c2ccccc2)o1,GI50,OVCAR-4 ovarian,265 nM
same,TGI,OVCAR-4 ovarian,29300 nM
same,GI50,MDA-MB-231 breast,148 nM
same,TGI,MDA-MB-231 breast,2190 nM
same,GI50,HOP-62 NSCLC,467 nM
same,TGI,HOP-62 NSCLC,20800 nM
same,GI50,MOLT-4 leukemia,59.9 nM
same,TGI,MOLT-4 leukemia,21900 nM
same,GI50,HS 578T breast,570 nM
same,TGI,HS 578T breast,21000 nM
same,GI50,SK-OV-3 ovarian,455 nM
same,TGI,SK-OV-3 ovarian,40200 nM
same,GI50,HCT-116 colon,108 nM
same,TGI,HCT-116 colon,1100 nM
same,GI50,SK-MEL-28 melanoma,418 nM
same,TGI,SK-MEL-28 melanoma,15800 nM
same,GI50,A498 renal,16700 nM
same,TGI,A498 renal,37300 nM
same,GI50,HT29 colon,66.6 nM
same,GI50,RXF 393 renal,1100 nM
same,TGI,RXF 393 renal,17800 nM
same,GI50,HL-60(TB) leukemia,74.8 nM
same,TGI,HL-60(TB) leukemia,265 nM
same,GI50,SK-MEL-2 melanoma,134 nM
same,TGI,SK-MEL-2 melanoma,9220 nM
same,GI50,LOX IMVI melanoma,35.4 nM
same,TGI,LOX IMVI melanoma,12300 nM
same,GI50,M14 melanoma,299 nM
same,TGI,M14 melanoma,15300 nM
same,GI50,DU-145 prostate,307 nM
same,TGI,DU-145 prostate,14300 nM
same,GI50,HCC-2998 colon,382 nM
same,TGI,HCC-2998 colon,14300 nM
same,GI50,RPMI-8226 leukemia,161 nM
same,TGI,RPMI-8226 leukemia,> 32500 nM
same,GI50,ACHN renal,203 nM
same,TGI,ACHN renal,20700 nM
same,GI50,CAKI-1 renal,295 nM
same,TGI,CAKI-1 renal,21000 nM
same,GI50,UO-31 renal,470 nM
same,TGI,UO-31 renal,21500 nM
same,GI50,UACC-62 melanoma,122 nM
same,TGI,UACC-62 melanoma,13900 nM
same,GI50,NCI-H460 lung,248 nM
same,TGI,NCI-H460 lung,1590 nM
same,GI50,SF-268 CNS,500 nM
same,TGI,SF-268 CNS,27800 nM
same,GI50,SK-MEL-5 melanoma,163 nM
same,TGI,SK-MEL-5 melanoma,391 nM
same,GI50,SF-295 CNS,165 nM
same,TGI,SF-295 CNS,2880 nM
same,GI50,SNB-19 CNS,323 nM
same,TGI,SNB-19 CNS,19700 nM
same,GI50,OVCAR-3 ovarian,284 nM
same,TGI,OVCAR-3 ovarian,2840 nM
same,GI50,SW-620 colon,196 nM
same,TGI,SW-620 colon,28300 nM
same,GI50,OVCAR-8 ovarian,143 nM
same,TGI,OVCAR-8 ovarian,1570 nM
same,GI50,KM12 colon,311 nM
same,TGI,KM12 colon,4840 nM
same,GI50,TK-10 renal,2260 nM
same,TGI,TK-10 renal,37100 nM
same,GI50,NCI-H23 lung,300 nM
same,TGI,NCI-H23 lung,9900 nM
same,GI50,MCF7 breast,90.7 nM
same,TGI,MCF7 breast,11100 nM
same,GI50,K-562 leukemia,55 nM
same,TGI,K-562 leukemia,> 72200 nM
same,GI50,BT-549 breast,177 nM
same,TGI,BT-549 breast,667 nM
same,GI50,786-0 renal,353 nM
same,TGI,786-0 renal,13700 nM
same,GI50,UACC-257 melanoma,258 nM
same,TGI,UACC-257 melanoma,23200 nM
same,GI50,HOP-92 NSCLC,953 nM
same,TGI,HOP-92 NSCLC,10100 nM
same,GI50,SF-539 CNS,72 nM
same,TGI,SF-539 CNS,237 nM
same,GI50,NCI-H522 lung,21.6 nM
same,TGI,NCI-H522 lung,59.2 nM
same,GI50,CCRF-CEM leukemia,136 nM
same,TGI,CCRF-CEM leukemia,> 55200 nM
same,GI50,T-47D breast,2950 nM
same,TGI,T-47D breast,20600 nM
same,GI50,NCI-H226 lung,276 nM
same,TGI,NCI-H226 lung,7950 nM
same,GI50,SR leukemia,114 nM
same,TGI,SR leukemia,19100 nM
same,GI50,SNB-75 CNS,165 nM
same,TGI,SNB-75 CNS,3530 nM
same,GI50,SN12C renal,125 nM
same,TGI,SN12C renal,8310 nM
same,GI50,PC-3 prostate,386 nM
same,TGI,PC-3 prostate,> 34400 nM
same,GI50,A549 NSCLC,251 nM
same,TGI,A549 NSCLC,> 49900 nM
same,GI50,NCI/ADR-RES ovarian,53.3 nM
same,TGI,NCI/ADR-RES ovarian,2590 nM
same,GI50,MDA-MB-435,112 nM
same,TGI,MDA-MB-435,303 nM
same,GI50,MALME-3M melanoma,202 nM
same,TGI,MALME-3M melanoma,17700 nM
same,GI50,U251 CNS,309 nM
same,TGI,U251 CNS,11000 nM
same,GI50,COLO 205 colon,196 nM
same,TGI,COLO 205 colon,377 nM
same,GI50,IGROV1 ovarian,314 nM
same,TGI,IGROV1 ovarian,16700 nM
same,GI50,HCT-15 colon,219 nM
same,TGI,HCT-15 colon,3040 nM
same,GI50,EKVX NSCLC,968 nM
same,TGI,EKVX NSCLC,29400 nM
same,GI50,OVCAR-5 ovarian,161 nM
same,TGI,OVCAR-5 ovarian,17600 nM
